Measured values taken from publication PMC12731536, “Sc(III) Complexes of Pyclen Derivative Ligands as Probes for Hypoxia: Synthesis, Chemical Characterization, ^44Sc‐Radiolabeling, and Preclinical Assessment” (Chemistry (Weinheim an Der Bergstrasse, Germany), 2025).
Read-outs that look alike come from different tables or passages of the source.

Legend:
[1] = parameters: method as in PMID 24838869; conditions: dissociation of [Sc(DOTA)]; cited from earlier work
[2] = cited from earlier work
[3] = Fluoride binding of [Sc(PC2AM^nBu)]^+ (ternary complex stability), 19F NMR titration; assay type: physicochemical; conditions: for log K ScLF: stability constant of the ternary fluoride complex, 19F NMR, pH = 5.2, I = 0.15 M NaCl, 25 °C; for K= [Sc(L)F]/[Sc(L)]*[F^-] / log K: titration point: complex 0.0050 M, pH 5.20, I = 0.15 M NaCl, 298 K
Text: Sc(III) is a typical “hard” cation, forming very stable complexes with fluoride anion.^[ [51], [52] ^] […] The formation of the ternary [Sc(PC2AM^nBu)(F)] complex can be followed by […], as two sets of signals (Δδ ∼ 20 Hz) indicate a slow exchange regime on the […] time scale (Figure S16). Measuring the intensities of the free and bound fluoride signals, the stability constant (Eqn. 6) of the [Sc(PC2AM^nBu)(F)] complex (Eqn. 5) can be calculated (Table S1).
(5) [Sc(PC2AM^nBu)]^++F^−⇌[Sc(PC2AM^nBu)(F)] (6) KScLF=ScPC2AM^nBuF/[ScPC2AM^nBu^+]F^−
Table S1. Summary of data used for the calculation of the stability constant, log K[Sc(PC2AM^nBu)(F)] by titration of 0.005M [Sc(PC2AM^nBu)]^+ parent complex with different amounts of F^- (0.005 - 0.01 M concentration range) followed by 376.4 MHz ^19F NMR (I = 0.15 M NaCl, c Sc(PC2AM^nBu) = 5 mM, pH=5.20, T= 298 K).

[4] = Fluoride exchange kinetics, 19F NMR selective magnetization transfer; assay type: physicochemical; conditions: complex 5 mM, cF = 10 mM, 14% uncertainty; for k obs ^AB (fluoride exchange, complex site A to free F^− site B): 298 K
Text: Considering ^18F‐labeling and PET application of the [Sc(L)(F)]‐type mixed complexes, one has to check the inertness of the mixed complex against F‐exchange:
(7) [Sc(PC2AM^nBu)F]+∗F^−⇌[Sc(PC2AM^nBu)∗F]+F^− where * is used to indicate typographically the exchanging anion.
The ^19F NMR signal of the mixed complex is somewhat broadened (ν ½ = 150 Hz) due to the relaxation effect of the quadrupole ^45Sc (I = 7/2) nuclei, while the free fluoride is narrow (ν ½ = 4.5 Hz), indicating the absence of chemical exchange on the T 2‐time scale (Figure S24). […] (site A) and free F^− (site B) with k obs ^AB value of 0.6 s^−1 (14% uncertainty), indicating remarkable inertness of the monodentate fluoride (Figure S25). Very recently, 3–4 orders of magnitude larger fluoride exchange rate constants have been published for two Y(III) complexes formed with open‐chain ligands, [Y(EGTA)(F)]^2− and [Y(OBETA)(H2O)(F)]^2−.^[ [56] ^] […] At the same time, the k obs value obtained for the [Sc(OPC2A)(F)] complex (k obs = 16.5 s^−1) is lower by an order of magnitude than that of [Yb(DTMA)(F)]^2+ [ [45] ^] which is likely to be rationalized by the more rigid environment around the M(III)‐F entity.
Figure S25. Selective magnetization transfer (MT) experiment (intensity vs. delay time) curves for [Sc(PC2AAM^nBu)(F)] (c[Sc(PC2AAMnBu)(F)] = 5 mM, cF = 10 mM, pH = 5.50, 298 K). The symbols show the measured intensities: red triangle [Sc(PC2AAM^nBu)(F)] (site A); blue square, free F^- (site B), the curves represent the fitted data (k^obsBA = 1.2 s^-1 (14% uncertainty), k^obsAB = 0.60 s^-1 (14% uncertainty), T1,A= 0.211 s; T1,B = 1.28 s (fixed)).

O=C(O)CN1CCN(CC(=O)O)CCN(CC(=O)O)CCN(CC(=O)O)CC1 [DOTA]
k 0 (spontaneous dissociation) [1]: 6e-06 s⁻¹ | k 1 (acid‐assisted dissociation) [1]: 4.3e-06 M⁻¹ s⁻¹

F.O=C([O-])CN(CCN(CC(=O)[O-])CC(=O)O)CC(=O)[O-].[Al+3] [[Al(EDTA)(F)]^2−]
k obs (fluoride exchange) ([2]; estimate, no magnetization effect in MT experiment): greater than or equal to 0.2 s^−1

O=C([O-])CN1CCOCCN(CC(=O)[O-])Cc2cccc(n2)C1.[F-].[Sc+3] [[Sc(OPC2A)(F)]]
k obs (fluoride exchange) ([2]; literature value): 16.5 s⁻¹

CCCCNC(=O)CN1CCN(CC(=O)[O-])Cc2cccc(n2)CN(CC(=O)[O-])CC1.[F-].[Sc+3] [[Sc(PC2AM^nBu)(F)]]
log K ScLF [3]: 2.5(2) | log K ScLF ([3]; listed as [Sc(PC2AMnBu)(F)]): 2.5 | K= [Sc(L)F]/[Sc(L)]*[F^-] ([3]; F^- 0.0050 M): 356.65 | log K ([3]; F^- 0.0050 M): 2.55 | K= [Sc(L)F]/[Sc(L)]*[F^-] ([3]; F^- 0.0060 M): 508.89 | log K ([3]; F^- 0.0060 M): 2.71 | K= [Sc(L)F]/[Sc(L)]*[F^-] ([3]; F^- 0.0070 M): 342.86 | log K ([3]; F^- 0.0070 M): 2.54 | K= [Sc(L)F]/[Sc(L)]*[F^-] ([3]; F^- 0.0080 M): 222.09 | log K ([3]; F^- 0.0080 M): 2.35 | K= [Sc(L)F]/[Sc(L)]*[F^-] ([3]; F^- 0.0100 M): 150.79 | log K ([3]; F^- 0.0100 M): 2.18 | k obs ^AB (fluoride exchange, complex site A to free F^− site B) [4]: 0.6 s⁻¹ | k obs ^AB (fluoride exchange, complex site A to free F^− site B) ([4]; listed as [Sc(PC2AAM^nBu)(F)]): 0.60 s⁻¹ | k^obsBA (fluoride exchange, free F^- site B to complex site A) ([4]; pH = 5.50, 298 K): 1.2 s⁻¹

CNC(=O)CN1CCN(CC(=O)NC)CCN(CC(=O)NC)CCN(CC(=O)NC)CC1.[F-].[Yb+3] [[Yb(DTMA)(F)]^2+]
k obs (fluoride exchange) ([2]; literature value): 216 s⁻¹
